Data on two compounds can be found in ChEMBL document CHEMBL2424622, “Development of amino-pyrimidine inhibitors of c-Jun N-terminal kinase (JNK): kinase profiling guided optimization of a 1,2,3-benzotriazole lead” (Bioorg Med Chem Lett, 2013).

Structures are written as SMILES. Values after ≈ are worked out from the molar mass of the structure shown.

One series has as its target LIM domain kinase 1 (Homo sapiens, UniProt P53667). Briefly: Binding affinity to LIMK1 (unknown origin).
Series [1] concerns the target Mitogen-activated protein kinase 1 (Homo sapiens, UniProt P28482). Briefly: Binding affinity to ERK2 (unknown origin).
Another series addresses eIF-2-alpha kinase GCN2 (Homo sapiens, UniProt Q9P2K8, S808G). Briefly: Binding affinity to GCN2 kinase domain 2 S808G mutant (unknown origin).
Series [2] can be described thus: Clearance in Hanover-Wistar rat at 0.5 mg/kg, iv. The settings on record: in vivo. Type of series: ADME, organism-based. Set-up: dose 0.5 mg/kg, route intravenous.
Series [3] in a line: Intrinsic permeability from basolateral to apical side in human Caco2 cells at 10 uM. Type of series: ADME, cell-based. Particulars: Caco-2, read-out: permeability. (In general: Caco-2 cells form a polarised layer with tight junctions and transporters.)
Series [4] has as its target Mitogen-activated protein kinase 15 (Homo sapiens, UniProt Q8TD08). Briefly: Binding affinity to ERK8 (unknown origin).
The target in series [5] is Cyclin-dependent kinase 7 (Homo sapiens, UniProt P50613). Put plainly: Binding affinity to CDK7 (unknown origin).
The nature of series [6]: Half life in Hanover-Wistar rat at 0.5 mg/kg, iv. Type of series: ADME, organism-based. Set-up: dose 0.5 mg/kg, route intravenous. Particulars: in vivo.
Series [7] concerns the target Mitogen-activated protein kinase 10 (Homo sapiens, UniProt P53779). Put plainly: Binding affinity to JNK3 (unknown origin).
Series [8] is described as follows: Half life in Hanover-Wistar rat at 2 mg/kg, po. Also noted: dose 2 mg/kg, route oral. Particulars: in vivo. Type of series: ADME, organism-based.
Series [9] has as its target Cyclin-dependent kinase 11A (Homo sapiens, UniProt Q9UQ88). Put plainly: Binding affinity to CDC2L2 (unknown origin).
For the next series, the target named is MAP kinase p38 (Homo sapiens, UniProt O15264+Q15759+Q16539+P53778). Put plainly: Inhibition of p38 (unknown origin)-dependent HSP27 phosphorylation by cell-based assay.
Series [10] addresses Mitogen-activated protein kinase 11 (Homo sapiens, UniProt Q15759). Briefly: Binding affinity to p38-beta (unknown origin).
The target of series [11] is Calcium/calmodulin-dependent protein kinase type 1 (Homo sapiens, UniProt Q14012). Put plainly: Binding affinity to CAMK1 (unknown origin).
Series [12] can be described thus: Equilibrium aqueous solubility in phosphate buffer at pH 6.5 at 25 degC. Type of series: physicochemical.
Series [13] can be described thus: Intrinsic clearance in rat liver microsomes measured per mg of protein. Type of series: ADME, Microsome. The settings on record: read-out: CLH. (In general: Liver microsomes are a subcellular fraction often used to study metabolism.)
The target in series [14] is Serine/threonine-protein kinase Nek5 (Homo sapiens, UniProt Q6P3R8). Briefly: Binding affinity to NEK5 (unknown origin).
Series [15] addresses Dual specificity mitogen-activated protein kinase kinase 4 (Homo sapiens, UniProt P45985). Put plainly: Binding affinity to MEK4 (unknown origin).
The target in series [16] is Mitogen-activated protein kinase 9 (Homo sapiens, UniProt P45984). Briefly: Binding affinity to JNK2 (unknown origin).
Series [17] relates to Rattus norvegicus. Briefly: Cmax in Hanover-Wistar rat at 0.5 mg/kg, iv. Type of series: ADME, organism-based. Also noted: dose 0.5 mg/kg, route intravenous. The settings on record: in vivo.
Series [18] is described as follows: AUC (0 to infinity) in Hanover-Wistar rat at 0.5 mg/kg, iv. Type of series: ADME, organism-based. Also noted: dose 0.5 mg/kg, route intravenous, time infinity. The settings on record: plasma.
Series [19] can be described thus: Oral bioavailability in Hanover-Wistar rat at 2 mg/kg. The settings on record: in vivo. Type of series: ADME, organism-based.
For series [20], the system named is Rattus norvegicus. Briefly: Cmax in Hanover-Wistar rat at 20 mg/kg, po. Type of series: ADME, organism-based. Also noted: dose 20 mg/kg, route oral. The settings on record: in vivo.
For series [21], the target named is Citron Rho-interacting kinase (Homo sapiens, UniProt O14578). Put plainly: Binding affinity to CIT (unknown origin).
The target of series [22] is Serine/threonine-protein kinase 16 (Homo sapiens, UniProt O75716). Put plainly: Binding affinity to STK16 (unknown origin).
In series [23] the target is Glycogen synthase kinase-3 alpha (Homo sapiens, UniProt P49840). Briefly: Binding affinity to GSK3A (unknown origin).
Series [24] concerns the target Death-associated protein kinase 1 (Homo sapiens, UniProt P53355). Briefly: Binding affinity to DAPK1 (unknown origin).
For series [25], the target named is MAP kinase-interacting serine/threonine-protein kinase 1 (Homo sapiens, UniProt Q9BUB5). Put plainly: Binding affinity to MKNK1 (unknown origin).
For series [26], the target named is Glycogen synthase kinase-3 beta (Homo sapiens, UniProt P49841). Put plainly: Binding affinity to GSK3B (unknown origin).
In series [27] the target is Serine/threonine-protein kinase 17A (Homo sapiens, UniProt Q9UEE5). Briefly: Binding affinity to DRAK1 (unknown origin).
In series [28] the target is Cyclin-dependent kinase 11B (Homo sapiens, UniProt P21127). Briefly: Binding affinity to CDC2L1 (unknown origin).
A short description of series [29]: Oral bioavailability in Hanover-Wistar rat at 20 mg/kg. The settings on record: in vivo. Type of series: ADME, organism-based.
Series [30] concerns the target Mitogen-activated protein kinase 4 (Homo sapiens, UniProt P31152). Briefly: Binding affinity to ERK4 (unknown origin).
The target in series [31] is Ribosomal protein S6 kinase alpha-1 (Homo sapiens, UniProt Q15418). Put plainly: Binding affinity to RPS6KA1 (unknown origin).
The target in series [32] is Death-associated protein kinase 2 (Homo sapiens, UniProt Q9UIK4). Briefly: Binding affinity to DAPK2 (unknown origin).
The target of series [33] is Death-associated protein kinase 3 (Homo sapiens, UniProt O43293). Put plainly: Binding affinity to DAPK3 (unknown origin).
In series [34] the target is Mitogen-activated protein kinase 7 (Homo sapiens, UniProt Q13164). Put plainly: Binding affinity to ERK5 (unknown origin).
A short description of series [35]: Intrinsic clearance in human liver microsomes measured per mg of protein. Type of series: ADME, Microsome. The settings on record: read-out: CLH.
Series [36] addresses Serine/threonine-protein kinase Nek1 (Homo sapiens, UniProt Q96PY6). Briefly: Binding affinity to NEK1 (unknown origin).
Series [37] deals with Atypical kinase COQ8B, mitochondrial (Homo sapiens, UniProt Q96D53). Briefly: Binding affinity to ADCK4 (unknown origin).
Series [38] has as its target Serine/threonine-protein kinase 24 (Homo sapiens) (UniProt Q9Y6E0). Briefly: Competitive binding affinity to STK24 (unknown origin) at 10 uM in presence of ATP relative to control.
Series [39] concerns the target Serine/threonine-protein kinase SIK2 (Homo sapiens) (UniProt Q9H0K1). Briefly: Competitive binding affinity to QIK (unknown origin) at 10 uM in presence of ATP relative to control.

Chain of Mitogen-activated protein kinase 9 (P45984 whole entry): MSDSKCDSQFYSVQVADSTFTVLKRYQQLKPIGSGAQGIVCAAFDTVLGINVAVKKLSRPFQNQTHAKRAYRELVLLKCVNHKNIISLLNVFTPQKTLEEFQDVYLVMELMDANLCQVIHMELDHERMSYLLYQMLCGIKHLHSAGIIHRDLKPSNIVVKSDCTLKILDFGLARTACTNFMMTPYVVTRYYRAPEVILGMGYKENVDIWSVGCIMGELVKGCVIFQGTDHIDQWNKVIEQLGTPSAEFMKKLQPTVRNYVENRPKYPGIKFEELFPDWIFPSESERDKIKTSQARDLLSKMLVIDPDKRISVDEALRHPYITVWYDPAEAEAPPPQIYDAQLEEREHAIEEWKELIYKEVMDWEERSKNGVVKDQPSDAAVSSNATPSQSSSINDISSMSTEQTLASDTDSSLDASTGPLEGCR
Chain of Death-associated protein kinase 2 (Q9UIK4 whole entry): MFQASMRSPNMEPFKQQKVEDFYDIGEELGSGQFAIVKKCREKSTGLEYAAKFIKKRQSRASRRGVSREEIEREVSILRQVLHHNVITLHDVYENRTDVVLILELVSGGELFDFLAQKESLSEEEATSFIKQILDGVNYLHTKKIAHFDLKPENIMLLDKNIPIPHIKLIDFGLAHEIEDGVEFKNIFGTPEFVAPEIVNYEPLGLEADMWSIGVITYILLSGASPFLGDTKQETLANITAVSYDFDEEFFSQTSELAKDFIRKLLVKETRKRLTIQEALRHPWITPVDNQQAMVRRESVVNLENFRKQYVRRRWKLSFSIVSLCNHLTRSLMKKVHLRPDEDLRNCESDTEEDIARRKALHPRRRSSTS
Chain of Serine/threonine-protein kinase 16 (O75716 whole entry): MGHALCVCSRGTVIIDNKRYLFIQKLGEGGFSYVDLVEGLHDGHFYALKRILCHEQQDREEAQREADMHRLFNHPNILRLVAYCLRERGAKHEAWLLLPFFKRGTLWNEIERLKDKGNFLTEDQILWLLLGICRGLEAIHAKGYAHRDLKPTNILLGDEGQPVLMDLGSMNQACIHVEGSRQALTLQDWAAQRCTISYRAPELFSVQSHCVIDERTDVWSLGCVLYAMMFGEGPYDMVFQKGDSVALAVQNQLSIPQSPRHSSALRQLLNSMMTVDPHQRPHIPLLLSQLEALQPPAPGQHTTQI
Chain of Glycogen synthase kinase-3 alpha (P49840 whole entry): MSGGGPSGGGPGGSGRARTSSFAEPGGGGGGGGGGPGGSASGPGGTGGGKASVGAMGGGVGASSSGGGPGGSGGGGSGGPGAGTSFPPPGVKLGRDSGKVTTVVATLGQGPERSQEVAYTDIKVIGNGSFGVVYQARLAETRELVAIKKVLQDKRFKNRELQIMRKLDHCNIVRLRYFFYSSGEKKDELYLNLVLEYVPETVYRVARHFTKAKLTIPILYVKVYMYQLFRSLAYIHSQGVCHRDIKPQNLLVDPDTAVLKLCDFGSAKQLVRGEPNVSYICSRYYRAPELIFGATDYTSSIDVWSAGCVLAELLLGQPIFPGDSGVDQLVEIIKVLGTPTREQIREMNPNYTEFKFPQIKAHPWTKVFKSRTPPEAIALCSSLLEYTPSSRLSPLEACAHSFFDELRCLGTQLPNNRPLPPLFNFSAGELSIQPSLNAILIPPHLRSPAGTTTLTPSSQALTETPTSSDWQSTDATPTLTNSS
Chain of eIF-2-alpha kinase GCN2 (Q9P2K8 whole entry S808G, the tested form may be a part): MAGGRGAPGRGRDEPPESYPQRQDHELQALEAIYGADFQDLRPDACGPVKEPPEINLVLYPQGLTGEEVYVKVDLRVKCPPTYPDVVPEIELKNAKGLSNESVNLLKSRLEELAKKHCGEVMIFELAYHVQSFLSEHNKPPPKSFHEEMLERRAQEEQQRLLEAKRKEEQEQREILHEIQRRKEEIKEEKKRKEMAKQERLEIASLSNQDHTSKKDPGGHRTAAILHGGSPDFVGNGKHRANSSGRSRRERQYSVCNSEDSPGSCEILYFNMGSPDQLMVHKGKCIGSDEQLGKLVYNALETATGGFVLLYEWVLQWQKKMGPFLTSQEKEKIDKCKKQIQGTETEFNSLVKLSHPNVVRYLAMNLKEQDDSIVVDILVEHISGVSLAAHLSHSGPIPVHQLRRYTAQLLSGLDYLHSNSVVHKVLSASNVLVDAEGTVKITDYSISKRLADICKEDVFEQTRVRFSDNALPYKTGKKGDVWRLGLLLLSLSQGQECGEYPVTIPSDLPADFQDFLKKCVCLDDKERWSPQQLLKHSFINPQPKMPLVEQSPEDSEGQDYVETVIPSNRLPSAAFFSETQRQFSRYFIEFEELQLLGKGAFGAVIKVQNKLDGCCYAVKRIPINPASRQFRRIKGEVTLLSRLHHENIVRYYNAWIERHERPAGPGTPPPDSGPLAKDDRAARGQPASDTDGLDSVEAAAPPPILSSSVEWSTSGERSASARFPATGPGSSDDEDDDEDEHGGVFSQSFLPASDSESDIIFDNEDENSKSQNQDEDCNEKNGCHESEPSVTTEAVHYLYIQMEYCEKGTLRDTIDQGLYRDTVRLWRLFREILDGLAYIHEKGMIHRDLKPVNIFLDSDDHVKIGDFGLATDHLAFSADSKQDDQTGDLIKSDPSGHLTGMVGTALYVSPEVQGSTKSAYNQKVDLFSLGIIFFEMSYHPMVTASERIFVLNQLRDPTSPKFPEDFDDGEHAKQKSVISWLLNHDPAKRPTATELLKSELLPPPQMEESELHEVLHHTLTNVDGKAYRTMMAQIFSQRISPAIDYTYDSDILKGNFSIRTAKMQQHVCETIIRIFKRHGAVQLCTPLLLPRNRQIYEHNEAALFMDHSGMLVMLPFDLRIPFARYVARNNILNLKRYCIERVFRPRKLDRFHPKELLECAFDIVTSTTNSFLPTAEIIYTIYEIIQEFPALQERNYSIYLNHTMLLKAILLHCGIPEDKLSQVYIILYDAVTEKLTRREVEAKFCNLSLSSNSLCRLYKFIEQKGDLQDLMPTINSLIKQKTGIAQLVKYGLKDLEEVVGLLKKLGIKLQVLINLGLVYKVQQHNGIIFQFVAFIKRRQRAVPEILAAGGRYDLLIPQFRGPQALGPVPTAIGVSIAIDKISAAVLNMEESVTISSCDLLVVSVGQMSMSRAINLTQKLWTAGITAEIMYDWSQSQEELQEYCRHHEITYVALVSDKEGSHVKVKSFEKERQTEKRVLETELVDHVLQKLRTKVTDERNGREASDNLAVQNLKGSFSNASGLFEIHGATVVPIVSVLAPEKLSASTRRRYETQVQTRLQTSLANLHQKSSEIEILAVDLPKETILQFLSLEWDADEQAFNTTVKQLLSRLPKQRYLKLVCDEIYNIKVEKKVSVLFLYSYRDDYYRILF
Chain of Serine/threonine-protein kinase Nek1 (Q96PY6 whole entry): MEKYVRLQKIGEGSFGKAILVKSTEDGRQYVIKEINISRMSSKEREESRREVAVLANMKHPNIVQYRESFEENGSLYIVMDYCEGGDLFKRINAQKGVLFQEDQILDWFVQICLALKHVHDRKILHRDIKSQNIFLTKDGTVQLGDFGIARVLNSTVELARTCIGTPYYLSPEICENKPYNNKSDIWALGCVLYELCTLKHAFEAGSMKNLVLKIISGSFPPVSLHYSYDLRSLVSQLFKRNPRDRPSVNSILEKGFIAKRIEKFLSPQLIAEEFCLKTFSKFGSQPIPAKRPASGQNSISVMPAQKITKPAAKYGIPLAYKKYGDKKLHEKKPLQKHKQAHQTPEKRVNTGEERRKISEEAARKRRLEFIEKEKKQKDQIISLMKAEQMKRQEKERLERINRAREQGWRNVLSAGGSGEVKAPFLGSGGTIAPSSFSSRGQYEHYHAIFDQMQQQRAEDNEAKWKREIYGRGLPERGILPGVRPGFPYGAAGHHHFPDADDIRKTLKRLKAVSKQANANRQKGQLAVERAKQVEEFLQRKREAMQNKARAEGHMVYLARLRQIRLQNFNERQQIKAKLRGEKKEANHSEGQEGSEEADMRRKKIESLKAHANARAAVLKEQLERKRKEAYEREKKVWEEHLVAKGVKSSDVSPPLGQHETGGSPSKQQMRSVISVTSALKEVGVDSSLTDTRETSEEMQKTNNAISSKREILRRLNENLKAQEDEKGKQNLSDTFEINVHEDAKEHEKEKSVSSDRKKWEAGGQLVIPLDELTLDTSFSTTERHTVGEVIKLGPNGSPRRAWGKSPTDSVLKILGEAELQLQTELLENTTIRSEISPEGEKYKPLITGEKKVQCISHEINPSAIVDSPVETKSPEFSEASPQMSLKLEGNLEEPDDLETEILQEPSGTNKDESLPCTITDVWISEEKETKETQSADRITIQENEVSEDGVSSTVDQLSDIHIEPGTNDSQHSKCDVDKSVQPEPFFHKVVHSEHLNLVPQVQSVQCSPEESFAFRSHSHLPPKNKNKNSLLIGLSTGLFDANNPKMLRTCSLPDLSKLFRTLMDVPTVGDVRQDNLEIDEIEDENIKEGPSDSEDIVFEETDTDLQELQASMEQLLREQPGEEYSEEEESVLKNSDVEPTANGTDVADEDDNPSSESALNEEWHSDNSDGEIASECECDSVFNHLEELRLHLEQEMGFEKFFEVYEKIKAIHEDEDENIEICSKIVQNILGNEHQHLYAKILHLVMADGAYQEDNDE
Chain of Serine/threonine-protein kinase 17A (Q9UEE5 whole entry): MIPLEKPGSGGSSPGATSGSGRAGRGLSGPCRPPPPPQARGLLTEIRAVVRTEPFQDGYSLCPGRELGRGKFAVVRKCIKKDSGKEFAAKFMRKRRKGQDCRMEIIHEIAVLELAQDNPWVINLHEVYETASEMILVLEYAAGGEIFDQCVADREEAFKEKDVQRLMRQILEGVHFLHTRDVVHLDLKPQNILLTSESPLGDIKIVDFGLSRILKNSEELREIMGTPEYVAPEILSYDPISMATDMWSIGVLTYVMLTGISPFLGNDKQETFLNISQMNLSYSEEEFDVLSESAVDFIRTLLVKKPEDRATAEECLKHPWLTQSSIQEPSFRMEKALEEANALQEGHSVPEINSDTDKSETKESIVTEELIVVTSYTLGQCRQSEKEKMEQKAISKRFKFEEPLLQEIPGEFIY

Turning to `CS(=O)(=O)CCCOc1cccc2c1ccn2-c1ccnc(N[C@H]2CC[C@H](C(=O)N3CCC(O)CC3)CC2)n1`, the Kd on LIM domain kinase 1 came out at 0.87 µM; in series [1], 1.5 µM; on eIF-2-alpha kinase GCN2, 2.7 µM; in series [4], 0.65 µM; in [5] it was 0.62 µM; in series [7], 0.0018 µM. The Kd in series [9] was found to be 2.4 µM; in [10], 3.2 µM; in series [11] it was 4.3 µM; in series [14] it was 1.4 µM; in [15], 0.39 µM; in series [16], 0.013 µM. Moreover, the Kd in [21] was 2.7 µM; in series [22], 0.45 µM; in [23] it was 1.3 µM; in [24] it was 0.38 µM; in series [25], 2.1 µM; in [26] it was 5.4 µM. Further, the Kd in [27] is 0.44 µM; in [28], 1.3 µM; in [30], 11 µM; in series [31], 2.1 µM; in [32] it was 1.3 µM; in [33], 0.88 µM. In addition, the dissociation constant (Kd) in series [34] came to 1.5 µM; in series [36], 4 µM; in series [37] it was 4.8 µM. This compound displayed a clearance in series [2] of 4.6 mL/min/kg. Moreover, in [3], the Papp B→A at 10 µM was 11.5 ×10⁻⁶ cm/s. In addition, the results for the half-life in [6] and in series [8] were 2.6 h and 4 h, respectively. Moreover, the IC50 on MAP kinase p38 is > 30 µM. Further, the solubility (thermodynamic) in [12] was 3.9 µg/mL (≈ 7.02 µM). Moreover, the microsomal CLint in series [13] was determined as 52 µL/min/mg; in series [35] it was 30 µL/min/mg. The Cmax worked out at 2670 ng/mL in the series on Rattus norvegicus [17] and 3680 ng/mL with Rattus norvegicus [20]. In series [18], this compound showed an AUC(0-inf) of 1850 ng·h/mL. Also, the bioavailability in [19] turned out to be 7%; in series [29] it was 13%.

`O[C@H]1CC[C@H](Nc2nccc(-c3n[nH]c4ccccc34)n2)CC1`: the inhibition in series [38] was 93%; in [39], < 50%.

Usually Kd stands for the concentration at which binding is half-saturated. For orientation: clearance means a measure of how efficiently the substance is removed, as volume per time. The low end stands for inefficient removal, the high end for efficient removal. As usually defined, the half-life is the time needed for the level to fall by half in the phase considered. A word on the IC50: it is the concentration at which inhibition is half-maximal. A low value points to greater potency in that assay. As a reminder, the solubility (thermodynamic) is solubility found after equilibrating the solid with the medium. As a reminder, the Cmax is the highest concentration seen after dosing. The term AUC(0-inf) denotes the area under the concentration-time curve extrapolated to infinity. A word on the bioavailability: it is the share of a dose that reaches the circulation, judged against a reference dose that is usually intravenous. Read a high bioavailability as good availability. The inhibition is the change of the read-out against control, counted positive when it falls.
